Laboratory results taken from publication PMC2820425 (Molecular Biology of the Cell, 2010).
Numbering of substitutions follows the chain as printed. In names and notes the source's numbering stands.

T1: rat dynamin (Rattus norvegicus, UniProt P21575)
T1 sequence (P21575 1-864): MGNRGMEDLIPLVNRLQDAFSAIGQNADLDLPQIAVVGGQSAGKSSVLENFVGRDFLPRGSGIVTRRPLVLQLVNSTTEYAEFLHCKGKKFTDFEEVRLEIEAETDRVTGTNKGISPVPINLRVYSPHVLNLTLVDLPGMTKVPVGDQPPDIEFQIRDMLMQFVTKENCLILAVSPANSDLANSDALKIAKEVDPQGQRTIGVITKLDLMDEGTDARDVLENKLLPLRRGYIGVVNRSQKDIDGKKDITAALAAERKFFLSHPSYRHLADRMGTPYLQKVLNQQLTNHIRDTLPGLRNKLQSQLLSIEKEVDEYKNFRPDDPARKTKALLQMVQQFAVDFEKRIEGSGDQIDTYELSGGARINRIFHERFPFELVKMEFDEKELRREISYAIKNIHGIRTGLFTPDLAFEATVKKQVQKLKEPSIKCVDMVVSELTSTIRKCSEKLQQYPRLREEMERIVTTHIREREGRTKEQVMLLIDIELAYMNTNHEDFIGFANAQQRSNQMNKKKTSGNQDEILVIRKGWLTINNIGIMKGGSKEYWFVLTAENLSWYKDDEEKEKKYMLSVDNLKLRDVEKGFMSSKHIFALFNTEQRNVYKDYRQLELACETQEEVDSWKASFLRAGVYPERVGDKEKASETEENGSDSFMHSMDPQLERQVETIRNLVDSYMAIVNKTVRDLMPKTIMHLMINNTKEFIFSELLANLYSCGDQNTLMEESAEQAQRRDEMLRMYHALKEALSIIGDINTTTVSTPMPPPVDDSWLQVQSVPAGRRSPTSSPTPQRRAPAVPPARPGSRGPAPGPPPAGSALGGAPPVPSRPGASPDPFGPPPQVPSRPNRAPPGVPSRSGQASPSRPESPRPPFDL

T2: DYN-1 (Caenorhabditis elegans, UniProt P39055)
T2 sequence (P39055 1-830): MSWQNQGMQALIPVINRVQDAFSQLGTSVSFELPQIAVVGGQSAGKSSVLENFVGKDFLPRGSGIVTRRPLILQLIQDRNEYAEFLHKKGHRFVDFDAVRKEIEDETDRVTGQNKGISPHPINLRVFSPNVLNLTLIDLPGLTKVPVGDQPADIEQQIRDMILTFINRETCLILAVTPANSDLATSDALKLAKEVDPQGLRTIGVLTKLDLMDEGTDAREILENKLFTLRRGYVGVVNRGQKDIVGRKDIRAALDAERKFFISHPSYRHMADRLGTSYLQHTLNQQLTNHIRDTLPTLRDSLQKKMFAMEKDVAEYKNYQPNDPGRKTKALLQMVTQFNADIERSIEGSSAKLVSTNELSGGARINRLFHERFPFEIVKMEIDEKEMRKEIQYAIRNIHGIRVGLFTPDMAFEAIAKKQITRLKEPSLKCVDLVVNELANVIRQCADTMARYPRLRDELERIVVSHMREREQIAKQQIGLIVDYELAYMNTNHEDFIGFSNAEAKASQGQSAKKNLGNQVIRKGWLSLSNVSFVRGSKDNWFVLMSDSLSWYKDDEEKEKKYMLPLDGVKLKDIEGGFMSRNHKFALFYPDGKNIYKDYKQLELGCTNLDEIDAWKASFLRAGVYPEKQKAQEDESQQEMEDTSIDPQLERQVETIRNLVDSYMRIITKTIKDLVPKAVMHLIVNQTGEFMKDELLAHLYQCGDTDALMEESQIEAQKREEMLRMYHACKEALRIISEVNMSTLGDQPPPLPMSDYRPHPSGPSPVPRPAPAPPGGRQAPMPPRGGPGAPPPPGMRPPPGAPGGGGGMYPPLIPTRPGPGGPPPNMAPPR

B1: recombinant DYN-1(G40E) purified from SF21 insect cells (natural protein, C. elegans, UniProt P39055 1-830, looked up)
chain: T2 sequence (P39055 1-830) with G40E

Assays:
rat dynamin = biological target: T1, rat dynamin; assay: […] release from [γ-32P]GTP, charcoal assay; type: biochemical; settings: 1 mM GTP, 150 mM NaCl, with or without lipid; labelled compound
DYN-1 = biological target: T2, DYN-1; assay: […] release from [γ-32P]GTP, charcoal assay; type: biochemical; settings: 1 mM GTP, 150 mM NaCl, with or without lipid; labelled compound
[1] = biological target: the molecule itself; assay: cryo-TEM of protein incubated with liposomes

Row | Molecule | 32P release from [γ-32P]GTP, charcoal assay (rat dynamin) | 32P release from [γ-32P]GTP, charcoal assay (DYN-1) | binding result [1]
1 | Nc1nc2c(ncn2[C@@H]2O[C@H](COP(=O)(O)OP(=O)(O)OP(=O)(O)O)[C@@H](O)[C@H]2O)c(=O)[nH]1 [GTP] | DYN-1 displayed a low basal-level GTP hydrolysis activity as rat dynamin did | C. elegans DYN-1 displayed a low basal-level GTP hydrolysis activity | 
2 | B1 |  |  | binds
